Measurements taken from patent US20120052130A1, “GPR 119 MODULATORS” (Pfizer Inc., priority 2009, published 2012).

How the values were obtained:
human GPR119 [1] = target: T1, human GPR119 (Homo sapiens, UniProt Q8TDV5); assay: β-lactamase reporter functional assay for GPR119 agonists (hGPR119 HEK293-CRE beta-lactamase cells); type: cell-based; set-up: host or cells: hGPR119-HEK293-CRE-beta-lactamase cells; Emax: dose or concentration left out as unconfirmed; details: percent of maximal activity relative to standard GPR119 agonist (WO2005121121) at 10 micromolar; read-out: Human B-lactamase Intrinsic Activity*
T1 sequence (Q8TDV5 1-335): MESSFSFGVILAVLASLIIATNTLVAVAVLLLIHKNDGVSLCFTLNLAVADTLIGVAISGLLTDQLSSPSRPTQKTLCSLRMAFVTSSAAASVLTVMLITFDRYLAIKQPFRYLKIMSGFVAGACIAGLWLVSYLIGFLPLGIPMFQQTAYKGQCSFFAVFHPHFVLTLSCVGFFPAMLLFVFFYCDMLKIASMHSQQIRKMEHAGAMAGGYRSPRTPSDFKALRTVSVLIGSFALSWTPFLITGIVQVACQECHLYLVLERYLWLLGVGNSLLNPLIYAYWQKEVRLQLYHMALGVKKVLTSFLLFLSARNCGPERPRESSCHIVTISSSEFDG
Method: The assay for GPR119 agonists utilizes a cell-based (hGPR119HEK293-CRE beta-lactamase) reporter construct where agonist activation of human GPR119 is coupled to beta-lactamase production via a cyclic AMP response element (CRE). GPR119 activity is then measured utilizing a FRET-enabled beta-lactamase substrate, CCF4-AM (Live Blazer FRET-B/G Loading kit, Invitrogen cat #K1027). […] Fluorescence was measured on an EnVision fluorimetric plate reader, excitation 405 nm, emission 460 nm/535 nm. EC50 determinations were made from agonist-response curves analyzed with a curve fitting program using a 4-parameter logistic dose-response equation.

human GPR119 [2] = target: T1, human GPR119; assay: HTRF cAMP cell-based GPR119 agonist assay (hGPR119 HEK-CRE beta-lactamase cells); set-up: host or cells: hGPR119-HEK293-CRE-beta-lactamase cells; details: percent of maximal activity relative to standard GPR119 agonist (WO2005121121) at 10 micromolar
Method: GPR119 agonist activity was also determined with a cell-based assay utilizing an HTRF (Homogeneous Time-Resolved Fluorescence) cAMP detection kit (cAMP dynamic 2 Assay Kit; Cis Bio cat #62AM4PEC) that measures cAMP levels in the cell. The method is a competitive immunoassay between native cAMP produced by the cells and the cAMP labeled with the dye d2. The tracer binding is visualized by a Mab anti-cAMP labeled with Cryptate. The specific signal (i.e. energy transfer) is inversely proportional to the concentration of cAMP in either standard or sample.
Specifically, hGPR119HEK-CRE beta-lactamase cells (Invitrogen 2.5×10^7/mL; the same cell line used in the beta-lactamase assay described above) are removed from cryopreservation and diluted in growth medium (Dulbecco's modified Eagle medium high glucose (DMEM; Gibco Cat #11995-065), 1% charcoal dextran treated fetal bovine serum (CD serum; HyClone Cat # SH30068.03), 1×MEM Nonessential amino acids (Gibco Cat #15630-080) and 25 mM HEPES pH 7.0 (Gibco Cat #15630-080)). The cell concentration was adjusted to 1.5×10^5 cells/mL and 30 mLs of this suspension was added to a T-175 flask and incubated at 37 degrees Celsius in a humidified environment in 5% carbon dioxide. […]
Varying concentrations of each compound to be tested were diluted in assay buffer containing 3-isobutyl-1-methylxanthin (IBMX; Sigma cat #15879) and added to the assay plate wells in a volume of 2 microL (final IBMX concentration was 400 microM and final DMSO concentration was 0.58%). […] The plates were then incubated at room temperature and after 60 minutes, changes in the HTRF signal were read with an Envision 2104 multilabel plate reader using excitation of 330 nm and emissions of 615 and 665 nm. Raw data were converted to nM cAMP by interpolation from a cAMP standard curve (as described in the manufacturer's assay protocol) and EC50 determinations were made from an agonist-response curves analyzed with a curve fitting program using a 4-paramter logistic dose response equation.

Emax (human GPR119 [1]) [%] | Human cAMP Intrinsic Activity* (human GPR119 [2]) [%] | SMILES
109 |  | CC(C)OC(=O)N1C[C@H]2COC[C@@H](C1)[C@@H]2Oc1cc(N2CCc3cc(S(C)(=O)=O)ccc32)ncn1 [Example 2, Isopropyl 9-syn-({6-[5-(methylsulfonyl)-2,3-dihydro-1H-indol-1-yl]pyrimidin-4-yl}oxy)-3-oxa-7-azabicyclo[3.3.1]nonane-7-carboxylate]
 | 107 | CC(C)OC(=O)N1CCC(Oc2cc(N3CCc4cc(S(C)(=O)=O)ccc43)ncn2)CC1 [Example 3, Isopropyl 4-({6-[5-(methylsulfonyl)-2,3-dihydro-1H-indol-1-yl]pyrimidin-4-yl}oxy)piperidine-1-carboxylate]
